What was measured:
Assay type in all cases: binding
[1] = molecular target: T1, SW480 colon carcinoma cells lysate proteins (Homo sapiens, UniProt Q9Y617); settings: PreyGene PSAT1
T1 sequence (Q9Y617 1-370): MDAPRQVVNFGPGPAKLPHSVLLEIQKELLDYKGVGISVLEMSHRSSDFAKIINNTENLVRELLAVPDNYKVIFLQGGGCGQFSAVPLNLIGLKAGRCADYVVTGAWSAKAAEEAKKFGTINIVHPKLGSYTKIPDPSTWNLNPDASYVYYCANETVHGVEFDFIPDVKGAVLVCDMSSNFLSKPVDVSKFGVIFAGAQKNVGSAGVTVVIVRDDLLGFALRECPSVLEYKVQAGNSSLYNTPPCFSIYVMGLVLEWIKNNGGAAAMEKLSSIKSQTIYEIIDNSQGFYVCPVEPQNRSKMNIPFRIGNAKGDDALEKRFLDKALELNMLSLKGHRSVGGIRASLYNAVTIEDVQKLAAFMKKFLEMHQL

[2] = molecular target: SW480 colon carcinoma cells lysate proteins (Homo sapiens, UniProt P06733); settings: PreyGene ENO1
[3] = molecular target: SW480 colon carcinoma cells lysate proteins (Homo sapiens, UniProt Q9HB71); settings: PreyGene CACYBP
[4] = molecular target: T2, SW480 colon carcinoma cells lysate proteins (Homo sapiens, UniProt Q15084); settings: PreyGene PDIA6
T2 sequence (Q15084 20-440): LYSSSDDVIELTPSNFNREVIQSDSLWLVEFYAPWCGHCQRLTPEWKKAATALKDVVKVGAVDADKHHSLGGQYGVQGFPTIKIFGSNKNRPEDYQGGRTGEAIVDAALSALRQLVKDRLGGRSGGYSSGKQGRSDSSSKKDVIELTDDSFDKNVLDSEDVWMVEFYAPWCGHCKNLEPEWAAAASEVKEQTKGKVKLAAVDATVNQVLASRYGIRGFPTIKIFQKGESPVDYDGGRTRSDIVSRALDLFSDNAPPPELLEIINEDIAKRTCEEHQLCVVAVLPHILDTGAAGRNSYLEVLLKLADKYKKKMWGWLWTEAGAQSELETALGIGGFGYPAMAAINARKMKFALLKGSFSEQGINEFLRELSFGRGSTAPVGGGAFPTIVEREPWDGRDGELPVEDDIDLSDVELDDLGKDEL

[5] = molecular target: T3, SW480 colon carcinoma cells lysate proteins (Homo sapiens, UniProt P16949); settings: PreyGene STMN1
T3 sequence (P16949 1-149): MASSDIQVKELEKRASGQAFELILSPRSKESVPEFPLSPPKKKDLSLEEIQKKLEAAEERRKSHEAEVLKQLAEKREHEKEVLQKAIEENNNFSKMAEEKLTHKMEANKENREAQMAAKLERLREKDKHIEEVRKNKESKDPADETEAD

[6] = molecular target: SW480 colon carcinoma cells lysate proteins (Homo sapiens, UniProt Q16658); settings: PreyGene FSCN1
[7] = molecular target: SW480 colon carcinoma cells lysate proteins (Homo sapiens, UniProt P22626); settings: PreyGene HNRNPA2B1
[8] = molecular target: SW480 colon carcinoma cells lysate proteins (Homo sapiens, UniProt P31939); settings: PreyGene ATIC
[9] = molecular target: SW480 colon carcinoma cells lysate proteins (Homo sapiens, UniProt P62136); settings: PreyGene PPP1CA
[10] = molecular target: T4, SW480 colon carcinoma cells lysate proteins (Homo sapiens, UniProt O43175); settings: PreyGene PHGDH
T4 sequence (O43175 1-533): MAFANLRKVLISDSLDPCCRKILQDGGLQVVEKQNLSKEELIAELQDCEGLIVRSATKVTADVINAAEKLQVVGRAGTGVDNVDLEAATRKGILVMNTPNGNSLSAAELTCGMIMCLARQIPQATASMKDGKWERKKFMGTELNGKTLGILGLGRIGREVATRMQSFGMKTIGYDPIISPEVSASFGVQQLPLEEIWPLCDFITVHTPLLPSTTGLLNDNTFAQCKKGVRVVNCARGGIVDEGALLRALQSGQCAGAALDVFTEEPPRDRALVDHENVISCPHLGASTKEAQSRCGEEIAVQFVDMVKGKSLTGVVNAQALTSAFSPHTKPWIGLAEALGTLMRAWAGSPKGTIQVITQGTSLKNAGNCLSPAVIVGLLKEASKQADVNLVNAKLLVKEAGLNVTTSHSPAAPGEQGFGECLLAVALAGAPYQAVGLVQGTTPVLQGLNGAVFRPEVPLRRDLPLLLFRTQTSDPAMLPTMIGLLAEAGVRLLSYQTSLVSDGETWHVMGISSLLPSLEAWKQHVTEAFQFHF

SW480 colon carcinoma cells lysate proteins (Homo sapiens, UniProt Q9HB71), sequence (Q9HB71 whole entry): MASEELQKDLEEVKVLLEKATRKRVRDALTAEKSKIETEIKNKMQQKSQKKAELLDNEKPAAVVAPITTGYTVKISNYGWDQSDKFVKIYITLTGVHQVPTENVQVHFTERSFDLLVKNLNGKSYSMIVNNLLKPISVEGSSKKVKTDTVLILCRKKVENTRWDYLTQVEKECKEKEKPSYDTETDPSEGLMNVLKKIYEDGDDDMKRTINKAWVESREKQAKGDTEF
SW480 colon carcinoma cells lysate proteins (Homo sapiens, UniProt P22626), sequence (P22626 whole entry): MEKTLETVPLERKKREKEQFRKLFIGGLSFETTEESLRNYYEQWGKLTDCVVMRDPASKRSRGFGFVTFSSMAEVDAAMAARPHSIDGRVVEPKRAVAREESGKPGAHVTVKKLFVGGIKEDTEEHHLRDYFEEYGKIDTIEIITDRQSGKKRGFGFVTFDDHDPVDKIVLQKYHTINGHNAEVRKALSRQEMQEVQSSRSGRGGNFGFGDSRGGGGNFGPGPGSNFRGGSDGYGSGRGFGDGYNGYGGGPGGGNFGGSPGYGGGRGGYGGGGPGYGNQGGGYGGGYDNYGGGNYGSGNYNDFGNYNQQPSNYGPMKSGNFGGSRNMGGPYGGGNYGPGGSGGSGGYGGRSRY
SW480 colon carcinoma cells lysate proteins (Homo sapiens, UniProt P06733), sequence (P06733 whole entry): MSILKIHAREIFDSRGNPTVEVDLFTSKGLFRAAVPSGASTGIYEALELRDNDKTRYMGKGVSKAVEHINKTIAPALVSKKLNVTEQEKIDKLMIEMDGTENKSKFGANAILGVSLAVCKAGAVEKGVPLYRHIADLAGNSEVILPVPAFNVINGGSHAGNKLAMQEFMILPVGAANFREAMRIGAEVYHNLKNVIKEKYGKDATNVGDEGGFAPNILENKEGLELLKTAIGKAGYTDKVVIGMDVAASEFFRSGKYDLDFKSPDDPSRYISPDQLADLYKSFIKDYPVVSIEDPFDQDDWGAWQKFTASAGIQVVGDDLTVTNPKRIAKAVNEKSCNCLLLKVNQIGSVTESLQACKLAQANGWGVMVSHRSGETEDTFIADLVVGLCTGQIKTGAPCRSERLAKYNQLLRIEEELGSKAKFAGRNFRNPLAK
SW480 colon carcinoma cells lysate proteins (Homo sapiens, UniProt P62136), sequence (P62136 whole entry): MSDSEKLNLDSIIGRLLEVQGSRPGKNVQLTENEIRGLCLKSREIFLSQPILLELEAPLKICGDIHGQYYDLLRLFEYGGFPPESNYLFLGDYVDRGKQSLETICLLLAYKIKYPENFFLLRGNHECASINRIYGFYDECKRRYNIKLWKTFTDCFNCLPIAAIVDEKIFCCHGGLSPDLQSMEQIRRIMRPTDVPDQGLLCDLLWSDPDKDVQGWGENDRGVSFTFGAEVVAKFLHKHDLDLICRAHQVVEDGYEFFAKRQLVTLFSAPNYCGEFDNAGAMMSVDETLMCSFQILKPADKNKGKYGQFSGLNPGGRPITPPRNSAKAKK
SW480 colon carcinoma cells lysate proteins (Homo sapiens, UniProt P31939), sequence (P31939 whole entry): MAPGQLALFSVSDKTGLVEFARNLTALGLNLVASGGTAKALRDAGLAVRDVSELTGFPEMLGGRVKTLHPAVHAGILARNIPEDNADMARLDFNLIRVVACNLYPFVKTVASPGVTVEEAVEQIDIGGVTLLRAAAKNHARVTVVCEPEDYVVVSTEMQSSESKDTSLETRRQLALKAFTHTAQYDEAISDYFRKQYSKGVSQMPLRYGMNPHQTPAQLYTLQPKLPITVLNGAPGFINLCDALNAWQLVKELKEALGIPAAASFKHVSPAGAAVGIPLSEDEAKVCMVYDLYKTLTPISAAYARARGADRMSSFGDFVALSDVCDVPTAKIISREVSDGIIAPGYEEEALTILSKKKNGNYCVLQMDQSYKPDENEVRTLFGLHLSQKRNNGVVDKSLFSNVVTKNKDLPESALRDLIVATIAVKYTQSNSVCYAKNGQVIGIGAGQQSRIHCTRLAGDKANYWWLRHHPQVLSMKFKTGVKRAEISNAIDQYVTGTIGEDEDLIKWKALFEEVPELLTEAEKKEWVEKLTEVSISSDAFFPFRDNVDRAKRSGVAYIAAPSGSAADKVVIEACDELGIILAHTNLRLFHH

In the case of `C[C@H](Oc1cc(-c2cnn(C3CCNCC3)c2)cnc1N)c1c(Cl)ccc(F)c1Cl` [(5)-crizotinib], the AvgP [1] is reported as 0.3916, the “SC.Exp. 1-1” value [1] is reported as 3 and the “SC.Exp. 1-2” value [1] is reported as 3. The “SC.Exp. 2-1” value [1] was 0, the “SC.Exp. 2-2” value [1] was 0 and the “Sum (SC.Exp.)” value [1] was 6. The AvgP [2] was 0.2209, the “SC.Exp. 1-1” value [2] was 29 and the “SC.Exp. 1-2” value [2] was 28. The “SC.Exp. 2-1” value [2] was 7, the “SC.Exp. 2-2” value [2] was 7 and the “Sum (SC.Exp.)” value [2] was 71. The AvgP [3] was 0.392, the “SC.Exp. 1-1” value [3] was 2 and the “SC.Exp. 1-2” value [3] was 2. For the same compound, the “SC.Exp. 2-1” value [3] was 0, the “SC.Exp. 2-2” value [3] was 0 and the “Sum (SC.Exp.)” value [3] was 4. For the same compound, the AvgP [4] was 0.4427, the “SC.Exp. 1-1” value [4] was 3 and the “SC.Exp. 1-2” value [4] was 4. The “SC.Exp. 2-1” value [4] was 0, the “SC.Exp. 2-2” value [4] was 0 and the “Sum (SC.Exp.)” value [4] was 7. For the same compound, the AvgP [5] was 0.4156, the “SC.Exp. 1-1” value [5] was 3 and the “SC.Exp. 1-2” value [5] was 3. For the same compound, the “SC.Exp. 2-1” value [5] was 0, the “SC.Exp. 2-2” value [5] was 0 and the “Sum (SC.Exp.)” value [5] was 6. For the same compound, the AvgP [6] was 0.4044, the “SC.Exp. 1-1” value [6] was 2 and the “SC.Exp. 1-2” value [6] was 3. The “SC.Exp. 2-1” value [6] was 0, the “SC.Exp. 2-2” value [6] was 0 and the “Sum (SC.Exp.)” value [6] was 5. For the same compound, the AvgP [7] was 0.2944, the “SC.Exp. 1-1” value [7] was 2 and the “SC.Exp. 1-2” value [7] was 2. For the same compound, the “SC.Exp. 2-1” value [7] was 0, the “SC.Exp. 2-2” value [7] was 2 and the “Sum (SC.Exp.)” value [7] was 6. The AvgP [8] was 0.4369, the “SC.Exp. 1-1” value [8] was 3 and the “SC.Exp. 1-2” value [8] was 4. For the same compound, the “SC.Exp. 2-1” value [8] was 0, the “SC.Exp. 2-2” value [8] was 0 and the “Sum (SC.Exp.)” value [8] was 7. The AvgP [9] was 0.3721, the “SC.Exp. 1-1” value [9] was 2 and the “SC.Exp. 1-2” value [9] was 2. The “SC.Exp. 2-1” value [9] was 0, the “SC.Exp. 2-2” value [9] was 0 and the “Sum (SC.Exp.)” value [9] was 4. The AvgP [10] was 0.4081, the “SC.Exp. 1-1” value [10] was 5 and the “SC.Exp. 1-2” value [10] was 7. For the same compound, the “SC.Exp. 2-1” value [10] was 0, the “SC.Exp. 2-2” value [10] was 0 and the “Sum (SC.Exp.)” value [10] was 12.

From patent US9446039B2, “Aminoheteroaryl compounds as MTH1 inhibitors” (CEMM—FORSCHUNGSZENTRUM FÜR MOLEKULARE MEDIZIN GMBH, priority 2012, dated 2016)
